{"source": "patent US7235267B1", "about": "“Brain cell or nerve cell-protecting agents comprising medicinal ginseng” (priority 1999, dated 2007)", "key": {"[1]": {"system": "primary cultured myocardial cells", "experiment": "Myocardial cell survival in glucose-free, serum-free medium (α-actinin immunoblotting)", "type": "cell-based, rat", "description": "We have investigated whether or not ginsenoside Rb1 could actually suppress myocardial cell death in the concentration range for increasing the expression of Bcl-xL protein. For that purpose, for example, the protective effect of ginsenoside Rb1 on myocardial cells was examined when the primary cultured myocardial cells were cultured without addition of glucose. Ginsenoside Rb1 in the concentration range from 0 to 1 ng/ml was added to myocardial cells in serum-free DMEM without containing glucose, and the myocardial cells were cultured for 4 or 5 days. Subsequently, the samples for electrophoresis were prepared, and immunoblotting (Western blotting) was performed by using anti-striated muscle specific α-actinin antibody.\nWe (the present inventors) investigated whether ginsenoside Rb1 could actually suppress myocardial cell death in the concentration range for increasing the expression of Bcl-xL protein or not. For that purpose, for example, the protective effect of ginsenoside Rb1 on myocardial cells was examined when the primary cultured myocardial cells were cultured without addition of glucose. Ginsenoside Rb1 in the concentration range from 0 to 1 ng/ml was added to serum-free DMEM without containing glucose, and myocardial cells were cultured for 4 or 5 days. Subsequently, the sample for electrophoresis was prepared, and immunoblotting (Western blotting) was performed by using anti-striated muscle specific α-actinin antibody. […] Statistical analyses were conducted by ANOVA+Scheffe's post hoc test."}, "Bcl-xL": {"system": "Bcl-xL", "experiment": "Bcl-xL expression in primary cultured oligodendrocytes (RT-PCR, immunoblotting)", "type": "cell-based, rat", "description": "In order to investigate whether ginsenoside Rb1 enhances the expression of Bcl-xL in oligodendrocytes or not, for example, ginsenoside Rb1 at the concentrations from 1 fg/ml to 10 pg/ml was added to the primary cultured rat oligodendrocytes. After culture for 6 hours, total RNA was extracted and Bcl-xL mRNA was assayed by RT-PCR. β-actin mRNA was used as an internal standard of RT-PCR. Further, a part of oligodendrocytes was used as a sample for SDS electrophoresis after treatment with ginsenoside Rb1, and anti-apoptotic factor Bcl-xL in the culture well was examined by immunoblotting (Western blotting). Oligodendrocytes were isolated from the mixed brain cell culture by using the forebrain of newborn rats.\nIn order to investigate whether ginsenoside Rb1 enhances the expression of Bcl-xL in oligodendrocytes or not, for example, ginsenoside Rb1 at the concentration from 1 fg/ml to 10 pg/ml was added to the primary cultured rat oligodendrocytes. After culture for 6 hours, Total RNA was extracted and Bcl-xL mRNA was assayed by RT-PCR. β-actin mRNA was used as an internal standard of RT-PCR. Further, a part of oligodendrocytes was used as a sample for SDS electrophoresis after treating with ginsenoside Rb1, and the amount of anti-apoptotic factor Bcl-xL in the culture well was examined by immunoblotting (Western blotting). The mixed brain cell culture was initiated to isolate oligodendrocytes by using the forebrain of newborn rats."}, "[2]": {"system": "Wistar rats with spinal cord injury", "experiment": "Spinal cord injury model (20 g compression on lower thoracic cord for 20 minutes)", "type": "in vivo, rat", "description": "The present inventors have investigated the effects of repetitive or continuous intravenous administration of ginsenoside Rb1 using rats with spinal cord injury and the effects were compared with those of repetitive or continuous intravenous administration of a crude saponin fraction of medicinal ginseng. If pressure is loaded on certain spinal segments such as the lower thoracic cord, not only nerve cells (neurons) in the gray matter of the same region but also fiber tracts or pathways in the white matter of the same region are damaged. The damages to the fiber tracts or pathways of the white matter are further developed to the distal portions (caudal portions) as well as causing the secondary degeneration of the origins of the fiber tract or pathways, namely the upper nerve cell bodies (i.e. origins) which project fibers (nerve processes) to the fiber tracts or pathways. As a result, the damages to the fiber tracts or pathways of the white matter in the lower thoracic cord, which received compression loading, induce the secondary degeneration of the origins (nerve cell bodies) sending fibers (also termed nerve processes or axons) to the fiber tracts or pathways as well as the secondary degeneration of fiber tracts located distal to the lower thoracic cord (i.e. lumbar cord and sacral cord) to cause paraplegia of both limbs. Further, since the innervation from the brain regions proximal to the lumbar cord and sacral cord is cut off due to damage to the lower thoracic cord, the secondary degeneration of nerve cells in the gray matters of the lumbar cord and sacral cord is further induced, as a result, paraplegia of the limbs can not be recovered. For that model of the spinal cord injury, the present inventors have used male Wistar rats (body weight about 300 g) loaded with 20 g of compression on the lower thoracic cord for 20 minutes.\nUnder inhalation anesthesia by a mixture of nitrous oxide and halothane, the rats were loaded with 20 g of compression on the lower thoracic cord for 20 minutes. After more than 30 minutes passed, ginsenoside Rb1 dissolved in physiological saline was injected once into the left femoral vein (12 μg or 60 μg), thereafter continuous or repetitive intravenous administration of ginsenoside Rb1 was performed for 7 days by using an Alza osmotic minipump (12 μg/day or 60 μ/day). Control animals and sham-operated animals were administered with the same amount of physiological saline (vehicle) alone. The open field locomotor scores [Basso, Bettie and Bresnakan (BBB) scores] were measured in each animal before loading spinal cord injury, on the day of spinal cord injury and from 1st day to 7th day after the spinal cord injury for use as an index of motor functions (Basso D. M. et al., J. Neurotrauma, 13, 343-359, 1996). BBB scores of the sham-operated rats (normal rats) were 20-21.\nUnder inhalation anesthesia by a mixture of nitrous oxide and halothane, the rats were loaded with 20 g of compression on the lower thoracic cord for 20 minutes. More than 30 minutes later, the crude saponin fraction dissolved in physiological saline was infused once into the left femoral vein (870 μg), thereafter continuous intravenous administration of the crude saponin fraction was performed for 7 days by using an Alza osmotic minipump (870 μg/day). Control animals with spinal cord injuries were administered with the same amount of physiological saline (vehicle) alone. […] These figures are photographs in place of drawings.\nUnder inhalation anesthesia by a mixture of nitrous oxide and halothane, wistar rats (body weight about 300 g) were loaded with 20 g of compression on the lower thoracic cord for 20 minutes. After they were awakened from anesthesia, the rats with paraplegia in both hindlimbs were allowed to stay for 1 hour and 40 minutes in the cage. […]"}}, "data": [{"smiles": "CC(C)=CCC[C@](C)(O[C@@H]1O[C@H](CO[C@@H]2O[C@H](CO)[C@@H](O)[C@H](O)[C@H]2O)[C@@H](O)[C@H](O)[C@H]1O)[C@H]1CC[C@]2(C)[C@@H]1[C@H](O)C[C@@H]1[C@@]3(C)CC[C@H](O[C@@H]4O[C@H](CO)[C@@H](O)[C@H](O)[C@H]4O[C@@H]4O[C@H](CO)[C@@H](O)[C@H](O)[C@H]4O)C(C)(C)[C@@H]3CC[C@]12C", "note": "[ginsenoside Rb1]", "values": [{"measurement": "protective effect on myocardial cells", "setting": "[1]; 0.01 fg/ml, n=3", "value": "significant effects are not noted"}, {"measurement": "striated muscle-specific α-actinin by immunoblotting (myocardial cell survival)", "setting": "[1]; 1 fg/ml to 10^4 fg/ml, glucose-free serum-free medium, 4-5 days", "value": "significantly detected"}, {"measurement": "concentrations promoting survival of myocardial cells", "setting": "[1]; FIG. 26", "value": "1-10^4 fg/ml"}, {"measurement": "expression of Bcl-xL mRNA in oligodendrocytes", "setting": "Bcl-xL; 100 fg/ml, 6 hours, RT-PCR", "value": "obviously enhanced"}, {"measurement": "concentrations increasing Bcl-xL protein expression in oligodendrocytes", "setting": "Bcl-xL; FIG. 23", "value": "1 to 100", "unit": "fg/mL"}, {"measurement": "Bcl-xL protein in oligodendrocytes", "setting": "Bcl-xL; immunoblotting after ginsenoside Rb1 addition", "value": "increased"}, {"measurement": "healing of the operative dorsal wounds / ill effects", "setting": "[2]; compared with rats administered with physiological saline", "value": "no such ill effects"}, {"measurement": "motor abilities (BBB scores) at the 7th day after spinal cord injury", "setting": "[2]; ginsenoside Rb1 intravenous 12 μg/day and 60 μg/day", "value": "significantly ameliorated in a dose-dependent manner"}, {"measurement": "bedsore (decubitus)", "setting": "[2]; ginsenoside Rb1 intravenous 60 μg/day starting 2 hours after spinal cord injury", "value": "hardly observed"}, {"measurement": "paraplegia of both hindlimbs", "setting": "[2]; ginsenoside Rb1 intravenous 60 μg/day starting 2 hours after spinal cord injury, from 3-4 days after onset", "value": "gradually ameliorated"}, {"measurement": "paraplegia of both hindlimbs", "setting": "[2]; ginsenoside Rb1 intravenous 60 μg/day starting more than 30 minutes after compression, 1-2 days later", "value": "significantly ameliorated"}]}]}
